Measurements published in patent US20200345746A1, “Oxazine Derivative for Use in the Prevention of Alzheimer's Disease in at Risk Patents” (Novartis AG, priority 2016, published 2020).
Marks after values point to notes of the source that are not given here.

Legend:
[1] = Compound levels in blood, brain and skin of C57BL/6 mice (HPLC/MS/MS); conditions: for AUCbrain (AUC0-24 h) / AUCventral skin (AUC0-24 h) / AUCdorsal skin (AUC0-24 h) / AUC(0-t): day 56; for AUCbrain (AUC0-24 h) / AUCventral skin (AUC0-24 h) / AUCdorsal skin (AUC0-24 h): from 4 and 24 h; for AUC(0-t): whole blood, po, AUCblood (AUC0-24 h)
Source text: Blood samples were used to analyze whole-blood compound levels and were obtained either from tail-vein during the in-life part into EDTA tubes (CB300, Sarstedt, Germany) or from trunk blood at the day of necropsy into EDTA Eppendorf tubes (Milian S A, CatNoTOM-14, Fisher Scientific, Wohlen, Switzerland), or into serum tubes (CB300Z, Sarstedt, Nümbrecht, Germany).
Brain was removed immediately after decapitation, rinsed with saline and sectioned sagitally down the midline. The left half of the cerebellum was used to analyze compound level and was placed into a glass tube (Chromacol, 125×5-SV T051, Welwyn Garden City, United Kingdom), weighed and frozen in dry-ice, the left half of the forebrain (without olfactory bulb) was used for Aβ analysis, and was frozen on a metal plate on dry ice and placed into protein Lo-bind tube (003 0108.116, Eppendorf, Hamburg, Germany).
Ventral and dorsal skin were taken to analyze compound level, weighed and frozen on dry-ice.
Brain samples were mixed with 2 volumes of KH2PO4 buffer and homogenized using the Covaris® device. Skin samples were mixed with approx. 6-fold volumes of methanol/water and homogenized using a Precellys tube. Either 30 μL of blood, brain or skin homogenate were spiked with a structurally related internal standard and subsequently mixed with an at least 6-fold excess volume acetonitrile for protein precipitation. The supernatant was injected directly into the LC/MS/MS system for analysis.
For tissue exposure, only data at 4 and 24 h were available.

[2] = Body weight, chronic 8-week dosing in wild-type mice; type: in vivo, mouse; conditions: C57BL/6 mice, 8 weeks chronic treatment
Experimental: (§1) Compound 1 and NB-360 were formulated as a suspension. […] Vehicle: […] in 0.5% methylcellulose in water.
(§2) Body weight was taken 3 times per week (Monday, Wednesday, Friday). Subjective scoring of any hair colour changes was performed once weekly (Wednesday). Scores (% of body with grey fur): 0: No change; 1: Spots; 2: >30%; 3: >50%; 4: >75%; 5: 100%. Animals were photo-documented when fur color change was observed. Final fur color scoring was performed blinded and by a person not involved in the study.

[3] = system: C57BL/6 mice; assay: Fur colour scoring, chronic 8-week dosing in wild-type mice; type: in vivo, mouse
Experimental: as §1, §2

SMILES: Cc1cc(C#N)cnc1C(=O)Nc1ccc(F)c([C@]2(C)CO[C@@](C)(C(F)(F)F)C(N)=N2)c1 [NB-360, N-(3-((3R,6R)-5-amino-3,6-dimethyl-6-(trifluoromethyl)-3,6-dihydro-2H-1,4-oxazin-3-yl)-4-fluorophenyl)-5-cyano-3-methylpicolinamide]
- AUCbrain (AUC0-24 h) ([1]; C57BL/6, 20 μmol/kg q.d.): 16.39 µmol·h/kg
- AUCventral skin (AUC0-24 h) ([1]; C57BL/6, 20 μmol/kg q.d.): 104.81 µmol·h/kg
- AUCdorsal skin (AUC0-24 h) ([1]; C57BL/6, 20 μmol/kg q.d., n = 2 for 24 h): 46.9^c μmol/kg · h
- AUCbrain (AUC0-24 h) ([1]; C57BL/6, 100 μmol/kg q.d.): 114.45 µmol·h/kg
- AUCdorsal skin (AUC0-24 h) ([1]; C57BL/6, 100 μmol/kg q.d.): 294 µmol·h/kg
- AUCventral skin (AUC0-24 h) ([1]; C57BL/6, 100 μmol/kg q.d.): 712.16 µmol·h/kg
- Kp ([1]; C57BL/6, mouse, brain / whole blood, oral): 2.8
- AUC(0-t) ([1]; C57BL/6, mouse, 20 umol/kg, C57BL/6, 20 μmol/kg q.d., from 1, 4, 7, 24 h time points): 6.93 µM·h
- AUC(0-t) ([1]; C57BL/6, mouse, 20 umol/kg, C57BL/6, 20 μmol/kg q.d., from 4 and 24 h time points): 5.6 µM·h
- AUC(0-t) ([1]; C57BL/6, mouse, 100 umol/kg, C57BL/6, 100 μmol/kg q.d., from 1, 4, 7, 24 h time points): 35.9 µM·h
- AUC(0-t) ([1]; C57BL/6, mouse, 100 umol/kg, C57BL/6, 100 μmol/kg q.d., from 4 and 24 h time points): 25.3 µM·h
- body weight difference compared to vehicle [2]: No overall significant body weight difference
- fur discoloration reached a plateau after [3]: 5 weeks
- fur colour change ([3]; 20 μmol/kg p.o. once daily, 8 weeks): slight but significant fur score change
- fur colour change ([3]; 100 μmol/kg p.o. once daily, 8 weeks): more severe and profound fur color change
- fur discoloration ([3]; 20 and 100 μmol/kg groups, 8 weeks): All animals in the NB-360 group showed fur discoloration
- appearance of grey patches apparent after ([3]; high and low dose group): 3 weeks
